Source: US20050234073A1, “Methods of inhibiting inflammation” (priority 2003, published 2005)

Experiments:
MODE-K cells = assay: MODE-K cell presentation of α-galcer to DN32 cells (IL-2 ELISA); type: cell-based, mouse; conditions: MODE-K cells incubated with inhibitor (10 uM)
Description: FIG. 17A is a bar chart showing IL-2 production of MODE-K cells cultured in the presence of BMS212122 (MTPi) or vehicle were incubated with α-galcer for 3 hours, washed, and co cultured with DN32 cells. IL-2 concentrations were measured by ELISA of 24 hour culture supernatants.
(§1) APCs were incubated with 100 ng/mL α-galcer (kindly provided by Dr. H. Ploegh) for 3 hours, washed three times in PBS and aliquoted into a 96 well plate at 10^6 cells/mL. DN32 cells were added at 1:1 E:T ratio unless otherwise indicated. CD4^+ cells were isolated from spleens of OT-II transgenic mice using positive selection on CD4 magnetic beads (Miltenyi Biotec) and incubated with APCs and 100 μg/mL ovalbumin. The 24.8 NKT cell line was incubated with APCs in the absence of added antigen at E:T=2:1 unless otherwise indicated. Mouse IL-2 production was assessed by ELISA (OptEIA, BD PharMingen) of 24 or 40 hour culture supernatants. APCs were treated with BMS212122 (10 uM dissolved in DMSO; kindly provided by Bristol Myers Squibb, New Jersey) as indicated and washed prior to addition of T or NKT cells. […]
The relationship between MTP and CD1d in large intestinal epithelial cells (IECs) was determined. […]

C1Rd cells = assay: C1Rd cell presentation of α-galcer to DN32 NKT cells (IL-2 ELISA); type: cell-based, human; conditions: C1Rd cells cultured 5 days with inhibitor
Description: FIG. 20D is a bar chart showing IL-2 production in C1Rd cells cultured with BMS212122 or vehicle for 5 days that were incubated with α-galcer for 3 hours IL-2 concentrations were measured by ELISA of 24 hour culture supernatants. *, p<0.02.
as §1
C1Rd is a human B cell line transfected with human CD1d. […] Incubation of C1Rd cells with BMS212122, but not the vehicle, inhibited the presentation of α-galcer as determined by a reduction in IL-2 secretion (FIG. 20D).

moDCs = assay: Human moDC presentation of α-galcer to DN32 iNKT cells (IL-2 ELISA); type: cell-based; conditions: moDCs differentiated in presence of inhibitor
Description: FIG. 20G is a line graph showing IL-2 production in human moDCs differentiated in the presence of BMS212122 (◯) or vehicle (●) were incubated with α-galcer. IL-2 concentrations were measured by ELISA of 24 hour culture supernatants. *, p<0.05; **, p<0.01.
as §1, with “supernatants.” for “supernatants. APCs were treated with BMS212122 (10 uM dissolved in DMSO; kindly provided by Bristol Myers Squibb, New Jersey) as indicated and washed prior to addition of T or NKT cells.”
Bone marrow was extracted from the femurs of C57BL6 or MTPmx1cre mice, washed once in PBS and resuspended in R10 supplemented with culture supernatant from murine GM-CSF transfected cells for a final concentration of 200 U/mL GM-CSF. […] Differentiated cells were harvested by gentle pipetting, washed in PBS, and analyzed by flow cytometry for surface expression of CD11c and I-A^b. […] After 5 days cells were dislodged by gentle pipetting, analyzed by flow cytometry and assayed for antigen presentation. […]

For Cc1ccc2c(nc(C)n2CCCCC2(C(=O)NCC(F)(F)F)c3ccccc3-c3ccccc32)c1NC(=O)c1ccccc1-c1ccc(C(F)(F)F)cc1 [BMS212122, 9-[4-[2,5-Dimethyl-4-[[[4′-(trifluoromethyl)[1,1′-biphenyl]-2-yl]carbonyl]amino]-1H-benzimidazol-1-yl]butyl]-N-(2,2,2-trifluoroethyl)-9H-fluorene-9-carboxamide], the “presentation of α-galcer to DN32 cells” value (MODE-K cells) was “decreased”, the “presentation of α-galcer (IL-2 secretion)” value (C1Rd cells) was “inhibited” and the “capacity to present α-galcer to DN32 iNKT cells” value (moDCs) was “reduced capacity”.
